In BindingDB's records for doi:10.1002/bip.20588 (University of California Davis, 2006):
*1 amine or outer side, *2 acyl side, *3 side chain or, on linkers, in order; H or OH if unused. Where a SMILES comes first, the peptide text is derived from it. [ ]: non-standard residue; d: D form. The star is where a group is joined. ξ: configuration not given here. X1 = O=C(Cc1ccc(N[*:1])cc1)[*:2]; Ile(3ξ) = CCC(C)[C@H](N)C(=O)O; NH(2-Me-phenyl) = Cc1ccccc1N*; β3hD = NC(CC(=O)O)CC(=O)O; Nle = CCCC[C@H](N)C(=O)O; Dap = NC[C@H](N)C(=O)O; Ac3c = NC1(C(=O)O)CC1; Aib = CC(C)(N)C(=O)O; CO = O=C([*:1])[*:2]; Butyryl = CCCC(=O)*; X10 = Brc1ccccc1N*

Target: Integrin alpha-4/beta-1 (Homo sapiens, UniProt P05556+P13612, T112H)
Experiment: Jurkat Cell Adhesion Inhibition Assay
Settings: not given
Description: Binding affinities (IC50) of the ligands were studied in a Jurkat cell adhesion assay by inhibiting the alpha-4/beta-1 mediated cell adhesion to CS-1 peptides. The 96-well plates were coated with neutravidin, followed by biotinconjugated CS-1 peptides. Jurkat cells with series dilutions of tested ligands in binding buffer were added and allowed to bind for 30 min. Bound cells were recorded using a 96-well plate reader at 570 nm. IC50 values were calculated from inhibition curves resulting from the concentration-dependent inhibition

Row | Structure (SMILES) | IC50 [nM]
1 | CCCC[C@H](NC(=O)Cc1ccc(NC(=O)Nc2ccccc2C)cc1)C(=O)N[C@@H](CC(=O)O)CC(=O)N[C@H](C(=O)N1CCC[C@H]1C(N)=O)C(C)CC (stereo partly drawn) [(3R)-4-{[(2S,3R)-1-[(2S)-2-carbamoylpyrrolidin-1-yl]-3-methyl-1-oxopentan-2-yl]carbamoyl}-3-[(2S)-2-[1-(4-{[(2-methylphenyl)carbamoyl]amino}phenyl)acetamido]hexanamido]butanoic acid] ({NH(2-Me-phenyl)-CO}-[X1][Nle][β3hD][Ile(3ξ)]P-NH2) | 4
2 | CCCC[C@H](NC(=O)Cc1ccc(NC(=O)Nc2ccccc2C)cc1)C(=O)N[C@@H](CC(=O)O)C(=O)NC(C)(C)C(=O)N1CCC[C@H]1C(N)=O [(3S)-3-({1-[(2S)-2-carbamoylpyrrolidin-1-yl]-2-methyl-1-oxopropan-2-yl}carbamoyl)-3-[(2S)-2-[1-(4-{[(2-methylphenyl)carbamoyl]amino}phenyl)acetamido]hexanamido]propanoic acid] ({NH(2-Me-phenyl)-CO}-[X1][Nle]D[Aib]P-NH2) | 13
3 | CCCC[C@H](NC(=O)Cc1ccc(NC(=O)Nc2ccccc2C)cc1)C(=O)N[C@@H](CC(=O)O)C(=O)NC1(C(=O)N2CCC[C@H]2C(N)=O)CC1 [(3S)-3-[(1-{[(2S)-2-carbamoylpyrrolidin-1-yl]carbonyl}cyclopropyl)carbamoyl]-3-[(2S)-2-[1-(4-{[(2-methylphenyl)carbamoyl]amino}phenyl)acetamido]hexanamido]propanoic acid] ({NH(2-Me-phenyl)-CO}-[X1][Nle]D[Ac3c]P-NH2) | 9.2
4 | CCCC[C@H](NC(=O)Cc1ccc(NC(=O)Nc2ccccc2Br)cc1)C(=O)N[C@@H](CC(=O)O)C(=O)N[C@H](C(=O)N1CCC[C@H]1C(N)=O)C(C)CC (stereo partly drawn) [(3S)-3-[(2S)-2-[1-(4-{[(2-bromophenyl)carbamoyl]amino}phenyl)acetamido]hexanamido]-3-{[(2S,3S)-1-[(2S)-2-carbamoylpyrrolidin-1-yl]-3-methyl-1-oxopentan-2-yl]carbamoyl}propanoic acid] ({X10-CO}-[X1][Nle]D[Ile(3ξ)]P-NH2) | 4.8
5 | CCCC(=O)NC[C@H](NC(=O)Cc1ccc(NC(=O)Nc2ccccc2C)cc1)C(=O)N[C@@H](CC(=O)O)C(=O)N[C@H](C(=O)N1CCC[C@H]1C(N)=O)C(C)CC (stereo partly drawn) [(3S)-3-[(2S)-3-butanamido-2-[1-(4-{[(2-methylphenyl)carbamoyl]amino}phenyl)acetamido]propanamido]-3-{[(2S,3S)-1-[(2S)-2-carbamoylpyrrolidin-1-yl]-3-methyl-1-oxopentan-2-yl]carbamoyl}propanoic acid] ({NH(2-Me-phenyl)-CO}-[X1][Dap](Butyryl)D[Ile(3ξ)]P-NH2) | 138

Same assay, conditions: pH 7.5; 22 °C

Row | Structure (SMILES) | IC50 [nM]
6 | CCCC[C@H](NC(=O)Cc1ccc(NC(=O)Nc2ccccc2C)cc1)C(=O)N[C@@H](CC(=O)O)C(=O)N[C@H](C(=O)NC1CCCC1C(N)=O)C(C)CC (stereo partly drawn) [(3S)-3-{[(1S,2S)-1-[(2-carbamoylcyclopentyl)carbamoyl]-2-methylbutyl]carbamoyl}-3-[(2S)-2-[1-(4-{[(2-methylphenyl)carbamoyl]amino}phenyl)acetamido]hexanamido]propanoic acid] | 3.4
7 | CCCC[C@H](NC(=O)Cc1ccc(NC(=O)Nc2ccccc2C)cc1)C(=O)N[C@@H](CC(=O)O)C(=O)N[C@H](C(=O)Nc1cccc(C(N)=O)c1)C(C)CC (stereo partly drawn) [(3S)-3-{[(1S,2S)-1-[(3-carbamoylphenyl)carbamoyl]-2-methylbutyl]carbamoyl}-3-[(2S)-2-[1-(4-{[(2-methylphenyl)carbamoyl]amino}phenyl)acetamido]hexanamido]propanoic acid] | 3.3
8 | CCCC[C@H](NC(=O)Cc1ccc(NC(=O)Nc2ccccc2C)cc1)C(=O)N[C@@H](CC(=O)O)C(=O)N[C@H](C(=O)NC1CC[C@@H]2SC[C@@H](C(N)=O)N2C1=O)[C@@H](C)CC (stereo partly drawn) [(3S)-3-{[(1S,2S)-1-{[(3R,8aS)-3-carbamoyl-5-oxo-hexahydro-2H-pyrido[2,1-b][1,3]thiazol-6-yl]carbamoyl}-2-methylbutyl]carbamoyl}-3-[(2S)-2-[1-(4-{[(2-methylphenyl)carbamoyl]amino}phenyl)acetamido]hexanamido]propanoic acid] | 3.4
